Data on 1 compound can be found in patent US20160024108A1, “USE OF DITHIINE-TETRACARBOXIMIDES FOR CONTROLLING BACTERIAL HARMFUL ORGANISMS IN USEFUL PLANTS” (BAYER CROPSCIENCE AKTIENGESELLSCHAFT, priority 2013, published 2016).

The experiment concerns Pseudomonas syringae pv tomato. Briefly: Field trial against bacterial speck on tomato (Spain, 2011), artificial inoculation. It counts as in vivo. The note with it: formulation containing 400 g per liter at 500 g ai/ha; in comparison with untreated plots and copper oxychloride standard. The protocol: A standard experiment was conducted in Spain in 2011 to evaluate the performance of BCS-BB98685 against bacterial speck of tomato caused by the bacteria Pseudomonas syringae pv tomato. Tomato plants were grown under plastic tunnel. Plots were artificially inoculated with a suspension of bacteria and treated with different experimental chemical formulations using a conventional sprayer. Four chemical sprays were applied within 7 days intervals. One artificial inoculation was performed one day after the third application. Disease assessment was done on 3 tomato plants per plot, 11 days after the last application. Infected leaflets were sorted in 3 classes according to a severity scale (Class 1=1 spot/leaflet; Class 2=2-5 spots/leaflet; Class 3=>5 spots/leaflet). Then results were expressed as severity index and transformed in efficacy values using the Abbott formula.

For the compound `Cn1c(=O)c2sc3c(=O)n(C)c(=O)c3sc2c1=O` [Compound I-1, 2,6-dimethyl-1H,5H-[1,4]dithiino[2,3-c:5,6-c′]dipyrrole-1,3,5,7(2H,6H)-tetrone], the “level of bacterial infection on tomatoes” value was “significantly reduce the level of bacterial infection on tomatoes”.
